Assay results from patent US20200039930A1, “PROLINE AMIDE COMPOUNDS AND THEIR AZETIDINE ANALOGUES CARRYING A SPECIFICALLY SUBSTITUTED BENZYL RADICAL” (AbbVie Deutschland GmbH & Co. KG, priority 2017, published 2020).

Tests used:
5-HT2C receptor = target: T1, 5-HT2C receptor (Homo sapiens, UniProt P28335); assay: Human 5-HT2C functional assay (beta-arrestin2 recruitment, U2OS_HTR2C_β-Arrestin cells); assay type: cell-based; settings: compounds used as acid addition salts; for EC50: U2OS_HTR2C_β-Arrestin cells, 1.5 h incubation, read-out: EC50 5-HT2C (potency in functional assay); for Emax: relative efficacy vs response to 10 µM 5-HT or maximal effect of 5-HT (100%)
T1 construct: host or cells: U2OS
T1 sequence (P28335 33-458): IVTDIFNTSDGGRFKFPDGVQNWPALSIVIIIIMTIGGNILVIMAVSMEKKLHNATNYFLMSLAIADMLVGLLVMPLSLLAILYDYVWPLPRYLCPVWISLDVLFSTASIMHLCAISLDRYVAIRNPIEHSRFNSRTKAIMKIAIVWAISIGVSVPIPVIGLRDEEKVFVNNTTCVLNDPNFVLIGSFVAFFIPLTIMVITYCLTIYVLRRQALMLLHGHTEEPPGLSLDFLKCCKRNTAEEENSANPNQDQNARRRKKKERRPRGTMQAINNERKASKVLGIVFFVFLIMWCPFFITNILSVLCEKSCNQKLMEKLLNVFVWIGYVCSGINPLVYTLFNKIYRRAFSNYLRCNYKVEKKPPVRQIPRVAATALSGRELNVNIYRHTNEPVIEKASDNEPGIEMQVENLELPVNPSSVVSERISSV
T1 sequence (P32121 whole entry partner): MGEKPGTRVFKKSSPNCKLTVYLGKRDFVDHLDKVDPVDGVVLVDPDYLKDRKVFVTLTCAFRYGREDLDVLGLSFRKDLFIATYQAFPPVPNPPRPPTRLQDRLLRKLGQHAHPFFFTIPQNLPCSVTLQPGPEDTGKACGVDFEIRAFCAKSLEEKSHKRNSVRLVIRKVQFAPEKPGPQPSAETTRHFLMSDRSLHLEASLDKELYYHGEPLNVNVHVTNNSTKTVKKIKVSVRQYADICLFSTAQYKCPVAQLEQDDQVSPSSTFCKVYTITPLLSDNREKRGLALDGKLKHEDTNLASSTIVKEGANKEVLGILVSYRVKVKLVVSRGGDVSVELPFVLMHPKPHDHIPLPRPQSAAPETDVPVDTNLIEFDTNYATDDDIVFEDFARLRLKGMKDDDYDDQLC
Experimental: The functional activity of compounds of formula I was assayed by incubation with U2OS_HTR2C_β-Arrestin cells (DiscoverX, 93-0289C3) to induce beta-arrestin2 recruitment to the 5-HT2C receptor. The agonist-induced recruitment and proximity of the receptor and beta-arrestin2 leads to complementation and formation of active β-galactosidase. The enzyme complementation results in enzyme activity, which is measured following the termination of the agonist incubation using DiscoveRx's detection reagent, which contains a chemiluminescent substrate which produces a high intensity signal. Cells were plated and a medium-change to a 1% serum containing medium was performed 24 h later. The next day, test compounds were added and incubated for 1.5 h before addition of detection reagent.
The response produced was measured and compared with the response produced by 10 [mu]M 5-HT or the maximal effect induced by 5-HT (defined as 100%) to which it was expressed as a percentage response (relative efficacy). Dose response curves were con-structed using Graphpad Prism (Graph Software Inc.) or using in house adapted software using a 4 parameter dose response model with variable slope (fit=(Bottom+(Top−Bottom)/(1+10^((LogEC50−x)*Hill Slope))res=(y−fit)). Results are compiled in the table below.

[1] = Metabolic stability: unbound intrinsic clearance in liver microsomes; assay type: in vitro ADME; settings: rat; liver microsomes 0.25 mg protein/mL, 0.5 μM compound, pH 7.4, 37° C.; Cl int unbound=Cl int/fu mic; compounds used as acid addition salts; read-out: Cl int, mic unb. (r) (unbound intrinsic clearance)
Experimental: Samples of the tested compounds (0.5 μM) were preincubated together with rat liver microsomes (0.25 mg of microsomal protein/mL) in 0.05 M potassium phosphate buffer of pH 7.4 in microtiter plates at 37° C. for 5 minutes. The reaction was started by adding NADPH (1.0 mM). After 0, 5, 10, 15, 20 and 30 minutes, an aliquot was removed, the reaction was cooled and stopped by adding twice the amount of quench solution consisting of acetonitrile/methanol 1:1, and containing […] carbutamide as internal standard. The samples were frozen until analyzed. The remaining concentration of undegraded test substance was determined by liquid chromatography-tandem mass spectrometry (LC-MS/MS). The half-life (t1/2) was determined from the gradient of the ratio of the signal of (test substance/internal standard)/unit time plot, allowing the calculation of the half-life of the test substance, assuming first order kinetics, from the decrease in the concentration of the compound with time. The microsomal clearance (mClint) was calculated as follows: mClint=((ln(2)/t 1/2)/Microsomal Protein Concentration (mg/ml))*1000, leading to the unit of uL/min/mg. The scaled clearance (mClin_scaled) was calculated as mCLint_scaled=m CLint*(Microsomal Yield (mg/kg BW))/1000000*60, leading to the units L/h/kg. The Microsomal Yield is defined by the specifics of the used microsomes. Calculations were modified from refer-ences: Di, The Society for Biomolecular Screening, 2003, 453-462; Obach, D M D, 1999 vol 27. N 11, 1350-1359.
A suspension of 0.25 mg/ml microsomal protein spiked with 0.5 μM of test compound was pipetted on one side of a HTDialysis device (HTDialysis LLC,37 Ledgewood Drive, Gales Fery Conn. 06335) separated by a membrane with a MWcut off 12-14 K. 50 mM K-Phosphate buffer (pH 7.4) was added on the other side of the well. After incubation at 37° C. for 4 h while shaking at 150 rpm, aliquots of both sides were taken, quenched with MeOH/ACN 1:1 and 0.2 μM of internal standard and frozen until analy-sis by LCMSMS.
Cl int unbound=Cl int/fu mic
The compounds were used in form of their respective acid addition salts.

Row | SMILES | EC50 (5-HT2C receptor) | Emax (5-HT2C receptor) | CLint scaled at 0.5 μM [1]
1 | COc1cc(OCc2cccc(F)c2)c(F)cc1CNC(=O)[C@@H]1CCCN1 [Example 1, (2S)—N-[[5-Fluoro-4-[(3-fluorophenyl)methoxy]-2-methoxy-phenyl]methyl]-pyrrolidine-2-carboxamide] | < 0.005 µM | > 70% | 1330 to 4170 mL/min/kg
2 | COc1cc(OCc2cc(F)cc(F)c2F)c(F)cc1CNC(=O)[C@@H]1CCCN1 [Example 2, (2S)—N-[[5-Fluoro-2-methoxy-4-[(2,3,5-trifluorophenyl)methoxy]phenyl]methyl]-pyrrolidine-2-carboxamide] | 0.005 to 0.015 µM | > 70% | 1330 to 4170 mL/min/kg
3 | COc1cc(OCc2ccc(F)cc2)c(F)cc1CNC(=O)[C@@H]1CCCN1 [Example 3, (2S)—N-[[5-Fluoro-4-[(4-fluorophenyl)methoxy]-2-methoxy-phenyl]methyl]-pyrrolidine-2-carboxamide] | < 0.005 µM | > 70% | 1330 to 4170 mL/min/kg
4 | COc1cc(OCc2cccc(F)c2F)c(F)cc1CNC(=O)[C@@H]1CCCN1 [Example 4, (2S)—N-[[4-[(2,3-Difluorophenyl)methoxy]-5-fluoro-2-methoxy-phenyl]methyl]-pyrrolidine-2-carboxamide] | 0.005 to 0.015 µM | > 70% | 1330 to 4170 mL/min/kg
5 | COc1cc(OCc2cc(F)cc(F)c2)c(F)cc1CNC(=O)[C@@H]1CCCN1 [Example 5, (2S)—N-[[4-[(3,5-Difluorophenyl)methoxy]-5-fluoro-2-methoxy-phenyl]methyl]-pyrrolidine-2-carboxamide] | < 0.005 µM | > 70% | 1330 to 4170 mL/min/kg
6 | COc1cc(OCc2ccccc2F)c(F)cc1CNC(=O)[C@@H]1CCCN1 [Example 6, (2S)—N-[[5-Fluoro-4-[(2-fluorophenyl)methoxy]-2-methoxy-phenyl]methyl]-pyrrolidine-2-carboxamide] | 0.015 to 0.03 µM | > 70% | 1330 to 4170 mL/min/kg
7 | COc1cc(OCc2c(F)ccc(F)c2Cl)c(F)cc1CNC(=O)[C@@H]1CCCN1 [Example 7, (2S)—N-[[4-[(2-Chloro-3,6-difluoro-phenyl)methoxy]-5-fluoro-2-methoxy-phenyl]-methyl]pyrrolidine-2-carboxamide] | 0.015 to 0.03 µM | > 70% | 1330 to 4170 mL/min/kg
8 | COc1cc(OCc2ccnc(F)c2)c(F)cc1CNC(=O)[C@@H]1CCCN1 [Example 8, (2S)—N-[[5-fluoro-4-[(2-fluoro-4-pyridyl)methoxy]-2-methoxy-phenyl]methyl]-pyrrolidine-2-carboxamide] | 0.015 to 0.03 µM | > 70% | < 500 mL/min/kg
9 | COc1cc(OCc2cncc(F)c2)c(F)cc1CNC(=O)[C@@H]1CCCN1 [Example 9, (2S)—N-[[5-Fluoro-4-[(5-fluoro-3-pyridyl)methoxy]-2-methoxy-phenyl]methyl]-pyrrolidine-2-carboxamide] | 0.015 to 0.03 µM | > 70% | 500 to 1330 mL/min/kg
10 | COc1cc(OCCc2ccc(F)cc2)c(F)cc1CNC(=O)[C@@H]1CCCN1 [Example 11, (2S)—N-[[5-Fluoro-4-[2-(4-fluorophenyl)ethoxy]-2-methoxy-phenyl]methyl]-pyrrolidine-2-carboxamide] | 0.005 to 0.015 µM | > 70% | 1330 to 4170 mL/min/kg
11 | COc1cc(OCCc2ccccc2F)c(F)cc1CNC(=O)[C@@H]1CCCN1 [Example 13, (2S)—N-[[5-Fluoro-4-[2-(2-fluorophenyl)ethoxy]-2-methoxy-phenyl]methyl]-pyrrolidine-2-carboxamide] | < 0.005 µM | > 70% | 1330 to 4170 mL/min/kg
12 | COc1cc(O[C@H]2CC[C@@H](F)CC2)c(F)cc1CNC(=O)[C@@H]1CCCN1 [Example 16, (S)—N-(5-Fluoro-4-((cis-4-fluorocyclohexyl)oxy)-2-methoxybenzyl)pyrrolidine-2-carboxamide] | 0.015 to 0.03 µM | > 70% | < 500 mL/min/kg
13 | COc1cc(O[C@H]2CC[C@H](F)CC2)c(F)cc1CNC(=O)[C@@H]1CCCN1 [Example 17, (S)—N-(5-Fluoro-4-((trans-4-fluorocyclohexyl)oxy)-2-methoxybenzyl)pyrrolidine-2-carboxamide] | 0.005 to 0.015 µM | > 70% | < 500 mL/min/kg
14 | COc1cc(OCC(F)(F)C(F)C(F)(F)F)c(F)cc1CNC(=O)[C@@H]1CCCN1 (stereo partly drawn) [Example 21, (2S)—N-[[5-Fluoro-4-(2,2,3,4,4,4-hexafluorobutoxy)-2-methoxy-phenyl]methyl]-pyrrolidine-2-carboxamide] | < 0.005 µM | > 70% | < 500 mL/min/kg
15 | COc1cc(OCCCC(F)(F)F)c(F)cc1CNC(=O)[C@@H]1CCCN1 [Example 23, (2S)—N-[[5-Fluoro-2-methoxy-4-(4,4,4-trifluorobutoxy)phenyl]methyl]pyrrolidine-2-carboxamide] | < 0.005 µM | > 70% | < 500 mL/min/kg

Results, then the molecule that gave them:

Row | EC50 (5-HT2C receptor) | Emax (5-HT2C receptor) | CLint scaled at 0.5 μM [1] | SMILES
16 | 0.015 to 0.03 µM | > 70% | 500 to 1330 mL/min/kg | COc1cc(OCc2ccc(C(F)(F)F)nc2)c(F)cc1CNC(=O)[C@@H]1CCCN1 [Example 10, (2S)—N-[[5-fluoro-2-methoxy-4-[[6-(trifluoromethyl)-3-pyridyl]methoxy]phenyl]-methyl]pyrrolidine-2-carboxamide]
17 | 0.005 to 0.015 µM | > 70% | 1330 to 4170 mL/min/kg | COc1cc(OCCc2cccc(F)c2)c(F)cc1CNC(=O)[C@@H]1CCCN1 [Example 12, (2S)—N-[[5-Fluoro-4-[2-(3-fluorophenyl)ethoxy]-2-methoxy-phenyl]methyl]-pyrrolidine-2-carboxamide]
18 | 0.005 to 0.015 µM | > 70% | 1330 to 4170 mL/min/kg | COc1cc(OCCc2ccc(C(F)(F)F)cc2)c(F)cc1CNC(=O)[C@@H]1CCCN1 [Example 14, (2S)—N-[[5-Fluoro-2-methoxy-4-[2-[4-(trifluoromethyl)phenyl]ethoxy]phenyl]-methyl]pyrrolidine-2-carboxamide]
19 | 0.005 to 0.015 µM | > 70% | 1330 to 4170 mL/min/kg | COc1cc(OCc2ccc(C(F)(F)F)o2)c(F)cc1CNC(=O)[C@@H]1CCCN1 [Example 15, (2S)—N-[[5-fluoro-2-methoxy-4-[[5-(trifluoromethyl)-2-furyl]methoxy]phenyl]-methyl]pyrrolidine-2-carboxamide]
20 | 0.005 to 0.015 µM | > 70% | < 500 mL/min/kg | COc1cc(OC2CCC(F)(F)CC2)c(F)cc1CNC(=O)[C@@H]1CCCN1 [Example 18, (2S)—N-[[4-(4,4-Difluorocyclohexoxy)-5-fluoro-2-methoxy-phenyl]methyl]-pyrrolidine-2-carboxamide]
21 | 0.015 to 0.03 µM | > 70% | < 500 mL/min/kg | COc1cc(OCCC(F)(F)F)c(F)cc1CNC(=O)[C@@H]1CCCN1 [Example 19, (2S)—N-[[5-Fluoro-2-methoxy-4-(3,3,3-trifluoropropoxy)phenyl]methyl]pyrrolidine-2-carboxamide]
22 | < 0.005 µM | > 70% | < 500 mL/min/kg | COc1cc(OCC(F)(F)C(F)F)c(F)cc1CNC(=O)[C@@H]1CCCN1 [Example 20, (2S)—N-[[5-Fluoro-2-methoxy-4-(2,2,3,3-tetrafluoropropoxy)phenyl]methyl]-pyrrolidine-2-carboxamide]
23 | 0.005 to 0.015 µM | > 70% | < 500 mL/min/kg | COc1cc(OC(C)C(F)(F)C(F)F)c(F)cc1CNC(=O)[C@@H]1CCCN1 (stereo partly drawn) [Example 22, (2S)—N-[[5-Fluoro-2-methoxy-4-(2,2,3,3-tetrafluoro-1-methyl-propoxy)phenyl]-methyl]pyrrolidine-2-carboxamide]
